molecular target: T1, human neutrophil elastase (HNE) (Homo sapiens, UniProt P08246); assay: In vitro inhibition of HNE using a fluorogenic peptide substrate (continuous read-out signal, 384 MTP assay format); format: biochemical; settings: substrate MeOSuc-Ala-Ala-Pro-Val-AMC, 37° C.
T1 construct: purchased SERVA Electrophoresis GmbH, Heidelberg, Germany #20927.01
T1 sequence (P08246 30-267): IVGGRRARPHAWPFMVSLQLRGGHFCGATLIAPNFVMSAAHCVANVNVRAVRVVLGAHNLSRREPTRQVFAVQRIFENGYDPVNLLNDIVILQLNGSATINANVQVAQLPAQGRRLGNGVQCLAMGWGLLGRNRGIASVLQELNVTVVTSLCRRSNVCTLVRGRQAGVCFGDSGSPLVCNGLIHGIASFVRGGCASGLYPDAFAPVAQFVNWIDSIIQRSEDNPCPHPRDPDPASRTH
Protocol: I. In Vitro Enzyme Assays of Human Neutrophil Elastase (HNE)
assay buffer: 0.1 M HEPES-NaOH buffer pH 7.4, 0.5 M NaCl, 0.1% (w/v) bovine serum albumin;
suitable concentration (see below) of substrate in assay buffer;
suitable concentration of test compounds diluted with assay buffer from a 10 mM stock solution in DMSO.
The test solution is prepared by mixing 10 μl of test compound dilution, 20 μl of HNE enzyme dilution (final concentration 8–0.4 μU/ml, routinely 2.1 μU/ml) and 20 μl of substrate dilution (final concentration 1 mM–1 μM, routinely 20 μM), respectively. The solution is incubated for 0–2 hrs at 37° C. (routinely one hour). The fluorescence of the liberated AMC due to the enzymatic reaction is measured at 37° C. (TECAN spectra fluor plus plate reader). […] IC50 values are determined by RFU-versus-[I] plots. Km and Km(app.) values are determined by Lineweaver-Burk plots and converted to Ki values by Dixon plots.

Row | Compound | IC50
1 | CC1=C(C#N)C(c2ccc(C#N)cc2)C(C(N)=O)C(=O)N1c1cccc(C(F)(F)F)c1 (single isomer, unassigned; (-)) [Example 98, (−)-5-Cyano-4-(4-cyanophenyl)-6-methyl-2-oxo-1-[3-(trifluoromethyl)phenyl]-1,2,3,4-tetrahydro-3-pyridinecarboxamide] | 0.008 µM
2 | CCOC(=O)C1=C(C)N(c2cccc(C(F)(F)F)c2)C(=O)C(C(=O)OCC)C1c1ccc(C#N)cc1 (stereo not shown) [Example 1] | 0.03 µM
3 | CCOC(=O)C1=C(C)N(c2cccc(C(F)(F)F)c2)C(=O)C(C(N)=O)C1c1ccc(C#N)cc1 (stereo not shown) [Example 3] | 0.02 µM
4 | CC1=C(C#N)C(c2ccc(C#N)cc2)C(C(N)=O)C(=O)N1c1cccc(C(F)(F)F)c1 (stereo not shown) [Example 7, 5-Cyano-4-(4-cyanophenyl)-6-methyl-2-oxo-1-[3-(trifluoromethyl)phenyl]-1,2,3,4-tetrahydro-3-pyridinecarboxamide] | 0.013 µM
5 | CC1=C(C#N)C(c2ccc(C#N)cc2)C(C(=O)N(C)C)C(=O)N1c1cccc(C(F)(F)F)c1 (stereo not shown) [Example 12, 5-Cyano-4-(4-cyanophenyl)-N,N,6-trimethyl-2-oxo-1-[3-(trifluoromethyl)phenyl]-1,2,3,4-tetrahydro-3-pyridinecarboxamide] | 0.025 µM
6 | CC(=O)C1=C(C)N(c2cccc(C(F)(F)F)c2)C(=O)C(C(=O)N(C)C)C1c1ccc(C#N)cc1 (stereo not shown) [Example 13, 5-Acetyl4-(4-cyanophenyl)-N,N,6-trimethyl-2-oxo-1-[3-(trifluoromethyl)phenyl]-1,2,3,4-tetrahydro-3-pyridinecarboxamide] | 0.025 µM
7 | CCOC(=O)C1=C(C)N(c2cccc(C(F)(F)F)c2)C(=O)C(C(=O)OCC)C1c1cc2cc(C#N)ccc2o1 (stereo not shown) [Example 15, Diethyl 4-(5-cyano-1-benzofuran-2-yl)-6-methyl-2-oxo-1-[3-(trifluoromethyl)phenyl]-1,2,3,4-tetrahydro-3,5-pyridinedicarboxylate] | 0.2 µM
8 | CC1=C(C#N)C(c2ccc(C#N)cc2)C(C(=O)NCCC(=O)O)C(=O)N1c1cccc(C(F)(F)F)c1 (stereo not drawn) [Example 19, N-({5-Cyano-4-(4-cyanophenyl)-6-methyl-2-oxo-1-[3-(trifluoromethyl)phenyl]-1,2,3,4-tetrahydro-3-pyridinyl}carbonyl)-β-alanine] | 0.025 µM
9 | COCCNC(=O)C1C(=O)N(c2cccc(C(F)(F)F)c2)C(C)=C(C#N)C1c1ccc(C#N)cc1 (stereo not shown) [Example 20, 5-Cyano-4-(4-cyanophenyl)-N-(2-methoxyethyl)-6-methyl-2-oxo-1-[3-(trifluoromethyl)phenyl]-1,2,3,4-tetrahydro-3-pyridinecarboxamide] | 0.03 µM
10 | CC1=C(C#N)C(c2ccc(C#N)cc2)C(C(=O)NCCO)C(=O)N1c1cccc(C(F)(F)F)c1 (stereo not shown) [Example 68, 5-Cyano-4-(4-cyanophenyl)-6-methyl-2-oxo-1-[3-(trifluoromethyl)phenyl]-1,2,3,4-tetrahydropyridine-3-carboxylic acid (2-hydroxyethyl)amide] | 0.015 µM
11 | CCNC(=O)C1=C(C)N(c2cccc(C(F)(F)F)c2)C(=O)CC1c1ccc(C#N)cc1 (stereo not shown) [Example 77] | 0.35 µM

tested on: human polymorphonuclear cells (PMNs); assay: In vitro PMN elastolysis assay (3H-elastin); format: cell-based; settings: at 1.2 μM; n=3 different donors at 3.6×10^5 cells per well; 4 hours at 37° C.
Protocol: In Vitro PMN Elastolysis Assay
This assay is used to determine the elastolytic potential of human polymorphonuclear cells (PMNs) and assess the proportion of degradation due to neutrophil elastase [cf. Z. W. She et al., Am. J. Respir. Cell. Mol. Biol. 9, 386–392 (1993)].
Tritiated elastin, in suspension, is coated on to a 96 well plate at 10 μg per well. Test and reference [ZD-0892 (J. Med. Chem. 40, 1876–1885, 3173–3181 (1997), WO 95/21855) and al protease inhibitor (α1PI)] compounds are added to the wells at the appropriate concentrations. Human PMNs are separated from peripheral venous blood of healthy donors and resuspended in culture media. The neutrophils are added to the coated wells at concentrations ranging between 1×10^6 to 1×10^5 cells per well. Porcine pancreatic elastase (1.3 μM) is used as a positive control for the assay, and α1PI (1.2 μM) is used as the positive inhibitor of neutrophil elastase. The cellular control is PMNs without compound at each appropriate cell density. The cells plus compounds are incubated in a humidified incubator at 37° C. for 4 hours. The plates are centrifuged to allow the harvest of cell supernatant only. […] The plates are dried until no liquid is visible in the wells and read in a beta counter for 3 minutes per well. […]
The compounds of this invention are evaluated for their inhibitory activity in this HNE-dependent model of neutrophil elastolysis.

Row | Compound | inhibition of elastolysis (mean±s.e.m.)
12 | α1PI: al protease inhibitor (α1PI), used as the positive inhibitor of neutrophil elastase | 83.46±3.97%

same assay, conditions: n=2 different donors at 3.6×10^5 cells per well; 4 hours at 37° C.; read-out: IC50 (mean±s.e.m.)

Row | Compound | IC50
13 | COc1ccc(C(=O)N[C@H](C(=O)N2CCC[C@H]2C(=O)N[C@H](C(=O)C(F)(F)F)C(C)C)C(C)C)cc1 [ZD-0892] | 0.0455 ± 0.00775 µM

Reference: US7230017B2, “Dihydropyridinone derivatives” (Bayer Healthcare AG, priority 2002, dated 2007)
